In ChEMBL document CHEMBL1201862, “PubChem BioAssay data set” (2004):
Active and inactive are the calls of the source.

Experiments:
[1] = luciferase reporter signal reduction – luminescence, H4-C neuroglioblastoma cells, dose response (AID 2458); assay type: functional, cell-based;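 further: H4 neuroglioblastoma cells stably carrying a luciferase reporter gene fusion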
BJ [2] = assay: cytotoxicity toward BJ-TERT fibroblasts, dose response, cell-based, RAS-independent, luminescence (AID 1933); assay type: functional; conditions: Homo sapiens
cells = assay type: functional, cell-based
[3] = Luminescence Cell-Based Dose Response HTS to Identify Inhibitors of 5'UTR Stem-Loop Driven Prion Protein mRNA Translation in H4 Neuroglioblastoma Cells. [Related pubchem assays: 1827 (Project Summary), 1813 (Primary HTS)]; assay type: functional
[4] = inhibitors of SNCA 5'UTR-driven reporter translation, confirmation, H4 neuroglioma cells, luminescence (AID 1988); assay type: functional, cell-based
BJ [5] = assay: cells; assay type: functional, cell-based; conditions: Homo sapiens
BJ [6] = assay: cytotoxicity toward BJ-TERT-LT-ST fibroblasts, dose response, cell-based, RAS-independent, luminescence (AID 1935); assay type: functional; conditions: Homo sapiens;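 further: BJ fibroblasts immortalized with TERT plus LT and ST oncogenes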
[7] = cytotoxicity toward DRD oncogenic fibroblasts, dose response, cell-based, non-viral oncogenic, luminescence (AID 1934); assay type: functional; conditions: Homo sapiens
[8] = inhibitors of SNCA 5'UTR-driven translation, confirmation, luminescence, H4 neuroglioblastoma cells, dose confirmation (AID 2454); assay type: functional, cell-based;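 further: H4 neuroglioblastoma cells carrying an alpha-synuclein 5'UTR luciferase reporter; potency for inhibition of the luciferase signal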
[9] = target: T1, Microphthalmia-associated transcription factor (Homo sapiens, UniProt O75030); assay: TRPM1 promoter luciferase signal decrease, dose response, MITF inhibitor project, cell-based, SK-MEL-5, cherry-picked, set 3 (AID 493073); assay type: functional
T1 sequence (O75030 whole entry): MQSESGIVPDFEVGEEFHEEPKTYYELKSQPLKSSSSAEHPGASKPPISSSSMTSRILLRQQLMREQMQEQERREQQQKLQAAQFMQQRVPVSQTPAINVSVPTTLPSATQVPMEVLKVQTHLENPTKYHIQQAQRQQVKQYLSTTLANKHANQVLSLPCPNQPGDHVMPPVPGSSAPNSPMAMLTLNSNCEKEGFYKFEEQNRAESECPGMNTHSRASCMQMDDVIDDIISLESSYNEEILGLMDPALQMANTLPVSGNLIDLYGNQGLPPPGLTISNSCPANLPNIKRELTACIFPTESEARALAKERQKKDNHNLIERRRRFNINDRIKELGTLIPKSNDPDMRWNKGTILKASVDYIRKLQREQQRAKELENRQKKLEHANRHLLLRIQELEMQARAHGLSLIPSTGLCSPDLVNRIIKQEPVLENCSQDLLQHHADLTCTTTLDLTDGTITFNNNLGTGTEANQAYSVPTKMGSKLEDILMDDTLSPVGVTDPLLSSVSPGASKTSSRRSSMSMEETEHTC

BJ [10] = assay: cytotoxicity toward Ras-transformed BJeLR fibroblasts, dose response, cell-based, alamar blue fluorescence, cherrypicked samples (AID 2631); assay type: functional; conditions: Homo sapiens;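 further: confirmatory dose-response assay in RAS-dependent BJ fibroblasts engineered with TERT, LT and ST, with cytotoxicity read by fluorescence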
[11] = microbe, parasite or virus in culture; assay type: functional; conditions: Mycobacterium tuberculosis
[12] = Luminescence Cell-Based Dose Retest to Confirm Inhibitors of Cancer Stem Cells. [Related pubchem assays (depositor defined):AID2717, AID2721]; assay type: functional; conditions: Homo sapiens
[13] = cytotoxicity in HMLE control line with eGFP shRNA, dose response, counter-screen for HMLE_sh_ECad selective toxicity project, cell-based, HMLE_sh_eGFP, luminescence (AID 463074); assay type: functional, Homo sapiens;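 further: HMLE human mammary epithelial cells expressing control shRNA against eGFP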
INS1 = assay: beta cell apoptosis inhibitors, cytokine rescue, dose response, luminescence, retest (AID 449756); assay type: functional, cell-based; conditions: Rattus norvegicus;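 further: cell death triggered by IL-1 beta plus TNF-alpha plus IFN-gamma mixture; protective hits raise ATP signal compared with cytokine alone wells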
Paired box protein Pax-8 = Paired box protein Pax-8 (Homo sapiens, UniProt Q06710); assay: inhibitors of PAX8-driven TPO luciferase reporter, dose response, RMG-I cells, cherry-pick (AID 687027); assay type: functional, cell-based;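 further: luciferase reporter driven by Pax8 target thyroperoxidase promoter measured by SteadyGlo luminescence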
Chain of Paired box protein Pax-8 (Q06710 whole entry): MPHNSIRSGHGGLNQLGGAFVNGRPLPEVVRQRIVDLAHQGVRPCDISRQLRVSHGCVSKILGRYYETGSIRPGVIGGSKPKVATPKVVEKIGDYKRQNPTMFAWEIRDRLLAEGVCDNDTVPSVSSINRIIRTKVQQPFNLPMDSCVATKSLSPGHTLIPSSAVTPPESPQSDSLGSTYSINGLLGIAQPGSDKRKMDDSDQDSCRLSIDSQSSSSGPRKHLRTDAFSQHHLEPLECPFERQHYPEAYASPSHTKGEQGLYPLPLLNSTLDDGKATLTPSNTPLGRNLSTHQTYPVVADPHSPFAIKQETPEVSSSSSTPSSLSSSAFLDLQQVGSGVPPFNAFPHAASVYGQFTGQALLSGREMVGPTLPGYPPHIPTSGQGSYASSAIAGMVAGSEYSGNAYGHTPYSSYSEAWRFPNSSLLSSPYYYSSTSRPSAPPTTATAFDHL

Estrogen receptor = target: T2, Estrogen receptor (Homo sapiens, UniProt P03372);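 further: potency for inhibiting coactivator peptide recruitment to the receptor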
T2 sequence (P03372 whole entry): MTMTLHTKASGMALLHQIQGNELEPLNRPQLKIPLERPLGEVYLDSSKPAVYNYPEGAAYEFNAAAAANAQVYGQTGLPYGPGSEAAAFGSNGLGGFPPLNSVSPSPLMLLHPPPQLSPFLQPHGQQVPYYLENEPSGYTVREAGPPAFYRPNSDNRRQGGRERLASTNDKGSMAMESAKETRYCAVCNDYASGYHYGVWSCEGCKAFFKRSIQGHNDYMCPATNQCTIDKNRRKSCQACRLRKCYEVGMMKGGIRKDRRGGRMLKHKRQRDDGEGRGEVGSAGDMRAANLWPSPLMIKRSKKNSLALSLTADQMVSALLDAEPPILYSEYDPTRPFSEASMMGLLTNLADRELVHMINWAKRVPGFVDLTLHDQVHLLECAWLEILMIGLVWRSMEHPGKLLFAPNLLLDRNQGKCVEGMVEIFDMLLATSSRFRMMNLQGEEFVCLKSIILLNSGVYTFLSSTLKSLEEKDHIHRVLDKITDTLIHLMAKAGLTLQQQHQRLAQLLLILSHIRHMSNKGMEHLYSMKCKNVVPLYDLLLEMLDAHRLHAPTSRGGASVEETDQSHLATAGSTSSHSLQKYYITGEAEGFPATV

Estrogen receptor beta = Estrogen receptor beta (Homo sapiens, UniProt Q92731);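 further: recombinant ER-beta bound to coactivator SRC1 peptide in presence of estradiol agonist; inhibitors block coactivator peptide binding and lower the FRET signal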
Chain of Estrogen receptor beta (Q92731 whole entry): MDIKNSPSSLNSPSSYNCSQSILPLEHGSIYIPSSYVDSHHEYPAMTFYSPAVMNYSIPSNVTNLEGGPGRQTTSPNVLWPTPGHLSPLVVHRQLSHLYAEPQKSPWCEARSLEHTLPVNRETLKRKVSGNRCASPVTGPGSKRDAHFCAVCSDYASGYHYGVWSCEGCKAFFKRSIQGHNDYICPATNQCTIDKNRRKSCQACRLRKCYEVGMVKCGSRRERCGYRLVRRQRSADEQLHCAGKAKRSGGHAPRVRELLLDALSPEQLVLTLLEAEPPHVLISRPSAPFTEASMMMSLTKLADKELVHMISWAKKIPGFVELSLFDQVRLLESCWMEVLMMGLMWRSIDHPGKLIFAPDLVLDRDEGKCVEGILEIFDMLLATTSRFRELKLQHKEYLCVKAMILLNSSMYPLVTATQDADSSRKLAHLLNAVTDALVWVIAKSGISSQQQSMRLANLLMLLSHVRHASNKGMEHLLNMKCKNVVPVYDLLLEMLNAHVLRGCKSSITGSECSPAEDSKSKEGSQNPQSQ

Vero = Vero cell cytotoxicity, cytotoxicity control for flavivirus capping enzyme inhibitors (AID 588742); assay type: functional; conditions: Chlorocebus sabaeus
[14] = target: T3, Sentrin-specific protease 8 (Homo sapiens, UniProt Q96LD8); assay: SENP8 protease inhibitors, SAR follow-up, biochemical, luminescence (AID 504501); assay type: functional
T3 sequence (Q96LD8 whole entry): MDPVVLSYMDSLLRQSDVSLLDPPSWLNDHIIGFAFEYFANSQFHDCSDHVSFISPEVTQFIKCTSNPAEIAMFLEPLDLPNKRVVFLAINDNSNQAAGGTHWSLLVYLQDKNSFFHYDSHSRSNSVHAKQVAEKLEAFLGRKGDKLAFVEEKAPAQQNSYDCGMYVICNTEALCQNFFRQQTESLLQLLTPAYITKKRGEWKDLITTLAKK

Caspase-3 = target: T4, Caspase-3 (Homo sapiens, UniProt P42574); assay: SAR Analysis of small molecule inhibitors of Sentrin-specific proteases (SENPs) using a Caspase-3 Selectivity assay. [Related pubchem assays (depositor defined):AID2540, AID2599, AID434973, AID489001]; assay type: functional
T4 sequence (P42574 whole entry): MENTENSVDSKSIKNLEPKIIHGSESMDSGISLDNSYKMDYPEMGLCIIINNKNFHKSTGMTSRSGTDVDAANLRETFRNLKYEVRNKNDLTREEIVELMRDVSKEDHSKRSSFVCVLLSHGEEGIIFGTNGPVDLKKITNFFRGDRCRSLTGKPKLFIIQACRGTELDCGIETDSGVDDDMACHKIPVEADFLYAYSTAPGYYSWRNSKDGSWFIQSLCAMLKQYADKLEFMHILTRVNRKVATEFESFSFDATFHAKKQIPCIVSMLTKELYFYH

[15] = target: T5, Sentrin-specific protease 6 (Homo sapiens, UniProt Q9GZR1); assay: SAR Analysis of small molecule inhibitors of Sentrin-specific protease 6 (SENP6) using a Luminescent assay. [Related pubchem assays (depositor defined):AID2582, AID2599]; assay type: functional
T5 sequence (Q9GZR1 whole entry): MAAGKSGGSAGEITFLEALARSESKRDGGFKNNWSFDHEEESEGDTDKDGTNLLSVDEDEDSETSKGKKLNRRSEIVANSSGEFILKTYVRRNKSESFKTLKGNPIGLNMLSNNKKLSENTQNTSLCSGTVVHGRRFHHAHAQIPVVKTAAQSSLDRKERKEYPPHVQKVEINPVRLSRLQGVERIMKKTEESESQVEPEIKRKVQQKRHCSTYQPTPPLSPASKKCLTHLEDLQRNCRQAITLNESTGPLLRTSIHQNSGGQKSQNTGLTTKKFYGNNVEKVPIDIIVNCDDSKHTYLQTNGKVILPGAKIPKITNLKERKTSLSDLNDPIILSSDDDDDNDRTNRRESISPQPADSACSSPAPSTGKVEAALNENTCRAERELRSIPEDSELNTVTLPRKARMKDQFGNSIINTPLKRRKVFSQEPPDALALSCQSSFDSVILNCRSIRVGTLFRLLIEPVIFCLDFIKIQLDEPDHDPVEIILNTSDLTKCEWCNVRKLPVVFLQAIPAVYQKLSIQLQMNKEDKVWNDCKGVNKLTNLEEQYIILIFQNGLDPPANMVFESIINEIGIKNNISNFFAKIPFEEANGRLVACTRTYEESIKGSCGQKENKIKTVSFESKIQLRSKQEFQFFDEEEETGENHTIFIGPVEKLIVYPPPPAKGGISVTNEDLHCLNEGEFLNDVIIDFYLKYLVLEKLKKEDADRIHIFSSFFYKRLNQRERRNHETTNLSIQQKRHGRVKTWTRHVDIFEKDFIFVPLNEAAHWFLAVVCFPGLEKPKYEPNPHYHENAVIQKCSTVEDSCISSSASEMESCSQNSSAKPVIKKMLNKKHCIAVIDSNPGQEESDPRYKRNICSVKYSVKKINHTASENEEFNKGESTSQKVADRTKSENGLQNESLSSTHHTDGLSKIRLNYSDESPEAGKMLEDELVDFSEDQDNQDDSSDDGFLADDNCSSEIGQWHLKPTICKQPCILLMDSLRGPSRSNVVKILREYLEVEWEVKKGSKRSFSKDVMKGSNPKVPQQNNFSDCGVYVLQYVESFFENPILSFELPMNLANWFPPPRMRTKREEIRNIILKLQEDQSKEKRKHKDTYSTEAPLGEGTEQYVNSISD

[16] = target: T6, Sentrin-specific protease 7 (Homo sapiens, UniProt Q9BQF6); assay: SENP7 protease inhibitors, SAR follow-up, biochemical, luminescence (AID 504497); assay type: functional
T6 sequence (Q9BQF6 whole entry): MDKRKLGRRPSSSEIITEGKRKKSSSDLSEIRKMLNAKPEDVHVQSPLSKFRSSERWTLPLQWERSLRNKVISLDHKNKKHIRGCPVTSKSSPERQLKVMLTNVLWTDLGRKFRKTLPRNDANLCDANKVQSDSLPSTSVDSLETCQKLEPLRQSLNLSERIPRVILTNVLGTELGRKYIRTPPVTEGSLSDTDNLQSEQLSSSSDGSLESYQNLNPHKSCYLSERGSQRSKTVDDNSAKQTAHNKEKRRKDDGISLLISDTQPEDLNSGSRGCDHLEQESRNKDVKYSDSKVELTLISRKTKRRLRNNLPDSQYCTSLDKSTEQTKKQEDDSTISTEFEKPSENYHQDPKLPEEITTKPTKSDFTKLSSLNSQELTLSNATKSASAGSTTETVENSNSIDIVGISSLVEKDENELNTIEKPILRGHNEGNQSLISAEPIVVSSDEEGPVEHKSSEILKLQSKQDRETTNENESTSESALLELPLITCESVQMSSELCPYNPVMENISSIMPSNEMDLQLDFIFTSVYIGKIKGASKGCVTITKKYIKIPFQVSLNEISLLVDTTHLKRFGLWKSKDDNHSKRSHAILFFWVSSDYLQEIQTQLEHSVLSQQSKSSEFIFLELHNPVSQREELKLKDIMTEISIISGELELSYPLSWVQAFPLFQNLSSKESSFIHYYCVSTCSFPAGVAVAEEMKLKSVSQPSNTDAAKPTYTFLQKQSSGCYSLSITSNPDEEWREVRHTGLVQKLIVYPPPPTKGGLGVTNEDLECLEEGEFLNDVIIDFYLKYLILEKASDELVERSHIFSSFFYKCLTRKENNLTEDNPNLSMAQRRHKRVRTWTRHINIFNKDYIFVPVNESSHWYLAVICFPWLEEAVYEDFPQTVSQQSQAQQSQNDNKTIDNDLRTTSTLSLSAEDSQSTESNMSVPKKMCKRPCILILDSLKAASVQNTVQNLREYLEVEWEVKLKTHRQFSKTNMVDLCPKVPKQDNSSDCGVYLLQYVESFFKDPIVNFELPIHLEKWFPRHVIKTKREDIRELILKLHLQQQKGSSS

Row | SMILES | EC50 (BJ [2]) | EC50 (BJ [5]) | EC50 (BJ [6]) | EC50 [7] | EC50 (BJ [10]) | IC50 [14] | IC50 (Caspase-3) | IC50 [15] | IC50 [16] | further results
1 | COc1cc2c(c(OC)c1OC)-c1ccc(N(C)CC(OC)OC)c(=O)cc1[C@@H](NC(C)=O)CC2 | 2.59 µM (inconclusive) | 3.06 µM (active) | 20 µM (inconclusive) | 2.35 µM (active) | 0.117 µM (active) |  |  |  |  | EC50 [1]: > 12 µM (not active); EC50 (cells): > 12 µM (not active); EC50 [3]: 8.84 µM (active); EC50 [4]: < 0.1 µM (active); EC50 [8]: 1.22 µM (active); AC50 [9]: 2.04 µM (active)
2 | CCCCn1cnc2c(c(-c3ccccc3)c(-c3ccccc3)n2Cc2ccco2)c1=N | 7.71 µM (active) | 36.1 µM (active) | 11.1 µM (inconclusive) | 9.06 µM (active) | 76.5 µM (active) |  |  |  |  | CC50 [11]: > 40 µM (active); AC50 [12]: 49.8 µM (active); AC50 [13]: 50.9 µM (active); AC50 (INS1): > 260 µM (inactive); AC50 (Paired box protein Pax-8): 9.7 µM (active)
3 | O=C(Nc1ccc(N2CCCC2)cc1)C(Cl)c1ccccc1 (stereo unspecified) |  |  |  |  |  |  |  |  |  | IC50 (Estrogen receptor): > 50 µM (not active); IC50 (Estrogen receptor beta): > 50 µM (not active); CC50 (Vero): > 40 µM (active)
4 | Cc1ccsc1C(=O)Nc1nc2ccc(Cl)cc2s1 |  |  |  |  |  | 0.62 µM (active) | 0.48 µM (active) | 0.66 µM (active) | 0.75 µM (active) | 
5 | COc1ccc(C2C(C#N)=C(N)Oc3c2c(C)nn3-c2ccccc2)cc1 (stereo unspecified) |  |  |  |  |  | > 99 µM (inactive) | > 99 µM (inactive) | 32.4 µM (active) | 63 µM (active) | 
6 | C(=C\c1nc(-c2ccc(N3CCOCC3)cc2)no1)/c1ccccc1 |  |  |  |  |  | > 99 µM (inactive) | > 99 µM (inactive) | > 99 µM (inactive) | > 99 µM (inactive) | 
